Earlier results on 2 molecules are cited in patent US8975279B2, “Amine salts of laquinimod” (Teva Pharmaceutical Industries, Ltd., priority 2012, dated 2015).

Where two headings read alike, the source gives them in different places.

Broadly, the pKa is the negative logarithm of the acid dissociation constant.

For data set [1] the following is noted: cited from earlier work.
For data set [2] the following is noted: free laquinimod in water, cited from earlier work.

Take `C[N+](C)(C)CCO.[OH-]` [Choline hydroxide]: in data set [1], the pKa is listed as 13.9.
As to `CCN(C(=O)c1c(O)c2c(Cl)cccc2n(C)c1=O)c1ccccc1` [laquinimod, N-ethyl-N-phenyl-1,2-dihydro-4-hydroxy-5-chloro-1-methyl-2-oxoquinoline-3-carboxamide], the intrinsic solubility was 7 µg/mL in data set [2] and “about 0.007 mg/ml” in data set [2] (listed as Free laquinimod). Moreover, in data set [1], the pKa is 4.2.
